Experimental data reported in patent US20050075375A1 (priority 2003, published 2005).

tested on: monocistronic NK5.1 HCV replicon in Huh7 cells; experiment: HCV replicon assay, monocistronic replicon cell line; type: cell-based, hepatitis C virus; conditions: Hepatitis C virus, Huh-7, 72 h; Table 1; monocistronic replicon in Huh7 cells, 3 days incubation, HCV RNA/GAPDH RNA by TaqMan RT-PCR; read-out: Mono EC50 Median
Description: HCV Replicon Assays (Replicon EC50 (μM))
HCV replication can be measured by a replicon assay such as described by Vrolijk et al, J. Virol. Methods 110:201(2003), which is hereby incorporated in its entirety by reference. The method was implemented as follows.
Monocistronic Replicon Cell Line:
Human hepatocyte Huh7 cells containing the monocistronic NK5.1 replicon were obtained from Ralf Bartenschlager at the University of Mainz, Germany. These cells were maintained under hygromycin selection and passaged when 80-90% confluent.
This cell line contains an autonomously replicating RNA element (replicon) incorporating the non-structural HCV elements necessary for replication, and upon which the survival of the replicon in the cell depends. This replicon contains a single internal ribosome entry site (HCV IRES). Inhibition of any of the critical HCV finctions by a compound leads to loss of the replicon as measured by HCV replicon RNA copy number reduction. The amount of HCV RNA present following a standard incubation with a compound is a measure of the anti-HCV activity of the compound. The assay was conducted by preparing sufficient 96-well plates containing these cells, wherein cells are seeded at 6000 cells/well in a 96-well plate, in 200 μl of final media volume. Cells were then incubated for 24 hours at 37 C., 5% CO2, and 95% humidity before compound was added. Six point half-log concentration response assays were conducted to determine potency/EC50 of Formula I compounds to inhibit HCV replicon replication. The final percent DMSO acceptable in this assay system is 0.6%. Compounds were diluted in media in an appropriate format and 5 μl of each drug dilution is added to each well. Cells were then incubated with compounds for 3 days at 37 C., 5% CO2, and 95% humidity. Following the three day incubation period, plates were washed twice with phosphate buffered saline to remove media and cells were lysed with Qiagen extraction buffer. RNA was extracted and isolated with the Qiagen RNAeasy kit according to the manufacturer's protocol (Qiagen). TaqMan One-Step RT-PCR was used in conjunction with an ABI 7700 Sequence Detector (Applied Biosystems) for the quantitation and analysis of HCV replicon RNA copy number. A GAPDH probe was used for internal normalization. The ratio of HCV RNA to cellular GAPDH RNA was determined and compared to the DMSO-only treated control, and the ratio of HCV RNA/GAPDH RNA was used for an EC50 determination and as a measure of specificity for inhibition of the HCV replicon.

Row | SMILES | EC50 [µM]
1 | Cc1cc(-c2c(O)ccc3ccccc23)nn1-c1ccccc1[N+](=O)[O-] [Compound 1, 1-[5-Methyl-1-(2-nitro-phenyl)-1 H-pyrazol-3-yl]-naphthalen-2-ol] | > 32
2 | Cc1cc(-c2ccccc2O)nn1-c1ccccc1[N+](=O)[O-] [Compound 2, 2-[5-Methyl-1-(2-nitro-phenyl)-1H-pyrazol-3-yl]-phenol] | > 32
3 | Cc1cc(-c2ccccc2O)n(-c2ccccc2[N+](=O)[O-])n1 [Compound 3, 2-[5-Methyl-2-(2-nitro-phenyl)-2H-pyrazol-3-yl]-phenol] | 31
4 | Cc1cc(-c2c(O)ccc3ccccc23)nn1-c1ccccc1 [Compound 4, 1-(5-Methyl-1-phenyl-1H-pyrazol-3-yl)-naphthalen-2-ol] | > 19
5 | Cc1cc(-c2c(O)ccc3ccccc23)nn1-c1ccccc1C(F)(F)F [Compound 5, 1-[5-Methyl-1-(2-trifluoromethyl-phenyl)-1H-pyrazol-3-yl]-naphthalen-2-ol] | > 19
6 | Cc1cc(-c2c(O)ccc3ccccc23)n(-c2ccccc2C(F)(F)F)n1 [Compound 6, 1-[5-Methyl-2-(2-trifluoromethyl-phenyl)-2H-pyrazol-3-yl]-naphthalen-2-ol] | 13
7 | Cc1cc(-c2ccccc2O)nn1-c1ccccc1C(F)(F)F [Compound 7, 2-[5-Methyl-i-(2-trifluoromethyl-phenyl)-1H-pyrazol-3-yl]-phenol] | 20
8 | COc1ccc(-n2nc(-c3c(O)ccc4ccccc34)cc2C)cc1 [Compound 8] | > 19
9 | Cc1cc(-c2ccc3ccccc3c2O)n(-c2ccccn2)n1 [Compound 9, 2-(5-Methyl-2-pyridin-2-yl-2H-pyrazol-3-yl)-naphthalen-1-ol] | > 19
10 | Cc1cc(-c2cc(C)c(C)cc2O)n(-c2ccccc2C)n1 [Compound 10, 4,5-Dimethyl-2-(5-methyl-2-o-tolyl-2H-pyrazol-3-yl)-phenol] | > 19
11 | Cc1cc(-c2ccccc2O)nn1-c1ccccc1 [Compound 11, 2-(5-Methyl-1-phenyl-1H-pyrazol-3-yl)-phenol] | 9
12 | Cc1cc(-c2ccc3ccccc3c2O)nn1-c1ccccc1[N+](=O)[O-] [Compound 12, 2-[5-Methyl-1-(2-nitro-phenyl)-1H-pyrazol-3-yl]-naphthalen-1-ol] | 13
13 | Cc1cc(-c2c(O)ccc3ccccc23)nn1-c1ccc(C(C)C)cc1 [Compound 13, 1-[1-(4-Isopropyl-phenyl)-5-methyl-1H-pyrazol-3-yl]-naphthalen-2-ol] | > 19
14 | COc1ccc(-n2nc(-c3ccccc3O)cc2C)cc1 [Compound 14, 2-[1-(4-Methoxy-phenyl)-5-methyl-1H-pyrazol-3-yl]-phenol] | 11
15 | Cc1cc(O)c(-c2cc(C)n(-c3ccccc3F)n2)cc1C [Compound 15, 2-[1-(2-Fluoro-phenyl)-5-methyl-1H-pyrazol-3-yl]-4,5-dimethyl-phenol] | > 19
16 | Cc1cc(-c2ccc3ccccc3c2O)nn1-c1ccccc1C(F)(F)F [Compound 16, 2-[5-Methyl-1-(2-trifluoromethyl-phenyl)-1H-pyrazol-3-yl]-naphthalen-1-ol] | 17
17 | Cc1cc(O)c(-c2cc(C)n(-c3ccccc3)n2)cc1C [Compound 17, 4,5-Dimethyl-2-(5-methyl-1-phenyl-1H-pyrazol-3-yl)-phenol] | > 19
18 | Cc1cc(-c2c(O)ccc3ccccc23)nn1-c1ccc(Cl)cc1 [Compound 18, 1-[1-(4-Chloro-phenyl)-5-methyl-1H-pyrazol-3-yl]-naphthalen-2-ol] | 18
19 | Cc1cc(-c2ccc3ccccc3c2O)n(-c2ccc(Cl)cc2)n1 [Compound 19, 2-[2-(4-Chloro-phenyl)-5-methyl-2H-pyrazol-3-yl]-naphthalen-1-ol] | 17
20 | Cc1cc(-c2c(O)ccc3ccccc23)nn1-c1ncc(C(F)(F)F)cc1Cl [Compound 20, 1-[1-(3-Chloro-5-trifluoromethyl-pyridin-2-yl)-5-methyl-1H-pyrazol-3-yl]-naphthalen-2-ol] | 13
21 | Cc1cc(O)c(-c2cc(C)n(-c3ccc(Cl)cc3)n2)cc1C [Compound 22, 2-[1-(4-Chloro-phenyl)-5-methyl-1H-pyrazol-3-yl]-4,5-dimethyl-phenol] | > 19
22 | Cc1cc(O)c(-c2cc(C)n(-c3nc4ccccc4s3)n2)cc1C [Compound 23, 2-(l-Benzothiazol-2-yl-5-methyl-1H-pyrazol-3-yl)-4,5-dimethyl-phenol] | > 19

Row | SMILES | EC50 [µM]
23 | Cc1cc(O)c(-c2cc(C)n(-c3ccccc3C(F)(F)F)n2)cc1C [Compound 24, 4,5-Dimethyl-2-[5-methyl-i-(2-trifluoromethyl-phenyl)-1H-pyrazol-3-yl]-phenol] | > 19
24 | Cc1cc(-c2c(O)ccc3ccccc23)nn1-c1ncccc1[N+](=O)[O-] [Compound 25, 1-[5-Methyl-1-(3-nitro-pyridin-2-yl)-1H-pyrazol-3-yl]-naphthalen-2-ol] | > 19
25 | Cc1cc(-c2c(O)ccc3ccccc23)nn1-c1ncccc1C(F)(F)F [Compound 26, 1-[5-Methyl-1-(3-trifluoromethyl-pyridin-2-yl)-1H-pyrazol-3-yl]-naphthalen-2-ol] | > 19
26 | Cc1cc(C(F)(F)F)cc(-n2nc(-c3c(O)ccc4ccccc34)cc2C)n1 [Compound 27, 1-[5-Methyl-i-(6-methyl-4-trifluoromethyl-pyridin-2-yl)-1 H-pyrazol-3-yl]-naphthalen-2-ol] | 12
27 | Cc1cc(-c2c(O)ccc3ccccc23)nn1-c1ccccn1 [Compound 28, 1-(5-Methyl-1-pyridin-2-yl-1H-pyrazol-3-yl)-naphthalen-2-ol] | > 19
28 | Cc1cc(-c2ccc3ccccc3c2O)nn1-c1ccc(C(C)C)cc1 [Compound 29, 2-[1-(4-Isopropyl-phenyl)-5-methyl-1H-pyrazol-3-yl]-naphthalen-1-ol] | > 19
29 | Cc1cc(O)c(-c2cc(C)n(-c3ccc(C(C)C)cc3)n2)cc1C [Compound 30, 2-[1-(4-Isopropyl-phenyl)-5-methyl-1H-pyrazol-3-yl]-4,5-dimethyl-phenol] | 12
30 | COc1ccccc1-c1ccn(-c2ccccc2[N+](=O)[O-])n1 [Compound 31, 3-(2-Methoxy-phenyl)-1-(2-nitro-phenyl)-1H-pyrazole] | 21
31 | COc1ccccc1-c1ccnn1-c1ccccc1[N+](=O)[O-] [Compound 32, 5-(2-Methoxy-phenyl)-1-(2-nitro-phenyl)-1H-pyrazole] | 3.6
32 | Oc1ccccc1-c1ccnn1-c1ccccc1F [Compound 35, 2-[2-(2-Fluoro-phenyl)-2H-pyrazol-3-yl]-phenol] | 14
33 | COc1ccccc1-c1ccn(-c2ncccc2[N+](=O)[O-])n1 [Compound 36, 2-[3-(2-Methoxy-phenyl)-pyrazol-1-yl]-3-nitro-pyridine] | 2.3
34 | COc1ccccc1-c1ccnn1-c1ncccc1[N+](=O)[O-] [Compound 37, 2-[5-(2-Methoxy-phenyl)-pyrazol-1-yl]-3-nitro-pyridine] | > 32
35 | COc1ccccc1-c1ccn(-c2ncccc2C(F)(F)F)n1 [Compound 38, 2-[3-(2-Methoxy-phenyl)-pyrazol-1-yl]-3-trifluoromethyl-pyridine] | 13
36 | COc1ccccc1-c1ccn(-c2ccccn2)n1 [Compound 39, 2-[3-(2-Methoxy-phenyl)-pyrazol-1-yl]-pyridine] | > 32
37 | COc1ccccc1-c1ccnn1-c1ccccn1 [Compound 40, 2-[5-(2-Methoxy-phenyl)-pyrazol-1-yl]-pyridine] | > 32
38 | O=[N+]([O-])c1cccnc1-n1ccc(-c2ccccc2O)n1 [Compound 41, 2-[1-(3-Nitro-pyridin-2-yl)-1H-pyrazol-3-yl]-phenol] | 6
39 | Oc1ccccc1-c1ccn(-c2ncccc2C(F)(F)F)n1 [Compound 42, 2-[1-(3-Trifluoromethyl-pyridin-2-yl)-1H-pyrazol-3-yl]-phenol] | 6
40 | Oc1ccccc1-c1ccn(-c2ccccn2)n1 [Compound 43, 2-(1-Pyridin-2-yl-1H-pyrazol-3-yl)-phenol] | 15
41 | Oc1ccccc1-c1ccnn1-c1ccccn1 [Compound 44, 2-(2-Pyridin-2-yl-2H-pyrazol-3-yl)-phenol] | > 32
42 | COc1ccc(-c2ccn(-c3ncccc3[N+](=O)[O-])n2)c(F)c1 [Compound 45, 2-[3-(2-Fluoro-4-methoxy-phenyl)-pyrazol-1-yl]-3-nitro-pyridine] | 5.8
43 | COc1ccc(-c2ccnn2-c2ncccc2[N+](=O)[O-])c(F)c1 [Compound 46, 2-[5-(2-Fluoro-4-methoxy-phenyl)-pyrazol-1-yl]-3-nitro-pyridine] | 6
